Laboratory results from ChEMBL document CHEMBL5696441 (Nat Chem Biol, 2011).

What was measured:
[1] = test system: Phosphatidylinositol 4,5-bisphosphate 3-kinase catalytic subunit alpha isoform (Homo sapiens), P42336 [E545A]; test: Inhibition of PIK3CA E545A mutant (unknown origin) assessed as remaining activity at 1 uM by Kinome scan method relative to control
[2] = biological target: Insulin receptor (Homo sapiens) (UniProt P06213); test: Inhibition of human INSR assessed as residual activity at 1 uM using poly(Ala,Glu,Lys,Tyr)6:2:5:1 as substrate in presence of 33P-ATP by ProQinase assay relative to control
Insulin receptor (Homo sapiens), sequence (P06213 28-758 limits assumed): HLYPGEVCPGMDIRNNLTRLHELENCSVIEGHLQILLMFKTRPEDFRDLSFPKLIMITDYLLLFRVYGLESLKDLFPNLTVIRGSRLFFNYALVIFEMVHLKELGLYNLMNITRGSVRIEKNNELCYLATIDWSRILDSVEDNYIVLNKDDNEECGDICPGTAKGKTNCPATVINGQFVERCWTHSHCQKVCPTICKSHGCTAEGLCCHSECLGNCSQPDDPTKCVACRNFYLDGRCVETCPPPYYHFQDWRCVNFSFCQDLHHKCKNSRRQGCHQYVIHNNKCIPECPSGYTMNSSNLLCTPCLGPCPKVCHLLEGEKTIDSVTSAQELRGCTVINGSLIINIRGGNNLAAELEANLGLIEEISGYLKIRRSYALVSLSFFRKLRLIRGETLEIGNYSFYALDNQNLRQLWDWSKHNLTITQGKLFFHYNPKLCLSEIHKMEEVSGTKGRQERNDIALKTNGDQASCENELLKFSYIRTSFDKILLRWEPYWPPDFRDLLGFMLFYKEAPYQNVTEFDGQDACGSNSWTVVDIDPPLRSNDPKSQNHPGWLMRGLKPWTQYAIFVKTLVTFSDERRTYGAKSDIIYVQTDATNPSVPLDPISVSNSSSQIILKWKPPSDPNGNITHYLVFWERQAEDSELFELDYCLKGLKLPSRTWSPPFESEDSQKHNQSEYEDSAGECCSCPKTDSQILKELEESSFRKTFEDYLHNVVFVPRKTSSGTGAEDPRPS
Insulin receptor (Homo sapiens), sequence (P06213 763-1382 limits assumed): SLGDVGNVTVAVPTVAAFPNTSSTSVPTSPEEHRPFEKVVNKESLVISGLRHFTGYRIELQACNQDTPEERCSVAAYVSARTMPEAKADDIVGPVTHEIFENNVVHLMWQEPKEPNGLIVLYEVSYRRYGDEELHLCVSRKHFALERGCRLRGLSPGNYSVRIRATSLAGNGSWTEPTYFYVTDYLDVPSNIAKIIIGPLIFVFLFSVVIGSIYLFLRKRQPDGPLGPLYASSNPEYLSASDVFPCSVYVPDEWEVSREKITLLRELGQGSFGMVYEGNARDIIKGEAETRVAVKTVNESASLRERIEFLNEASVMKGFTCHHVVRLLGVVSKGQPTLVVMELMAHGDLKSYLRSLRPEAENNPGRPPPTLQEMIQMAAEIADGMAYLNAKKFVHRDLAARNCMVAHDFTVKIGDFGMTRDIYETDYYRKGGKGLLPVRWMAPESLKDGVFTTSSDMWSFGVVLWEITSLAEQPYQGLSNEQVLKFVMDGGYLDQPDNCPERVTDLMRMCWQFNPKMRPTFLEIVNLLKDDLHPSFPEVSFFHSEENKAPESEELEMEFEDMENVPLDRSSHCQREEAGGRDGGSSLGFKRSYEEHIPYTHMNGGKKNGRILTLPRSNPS

[3] = biological target: Leucine-rich repeat serine/threonine-protein kinase 2 (Homo sapiens) (UniProt Q5S007); test: Inhibition of human LRRK2 assessed as residual activity at 1 uM using RBER-GSK3(14-27) as substrate in presence of 33P-ATP by ProQinase assay relative to control
[4] = biological target: Ephrin type-B receptor 1 (Homo sapiens) (UniProt P54762); test: Inhibition of human EPHB1 assessed as residual activity at 1 uM using polyEY as substrate in presence of 33P-ATP by ProQinase assay relative to control
Ephrin type-B receptor 1 (Homo sapiens), sequence (P54762 whole entry): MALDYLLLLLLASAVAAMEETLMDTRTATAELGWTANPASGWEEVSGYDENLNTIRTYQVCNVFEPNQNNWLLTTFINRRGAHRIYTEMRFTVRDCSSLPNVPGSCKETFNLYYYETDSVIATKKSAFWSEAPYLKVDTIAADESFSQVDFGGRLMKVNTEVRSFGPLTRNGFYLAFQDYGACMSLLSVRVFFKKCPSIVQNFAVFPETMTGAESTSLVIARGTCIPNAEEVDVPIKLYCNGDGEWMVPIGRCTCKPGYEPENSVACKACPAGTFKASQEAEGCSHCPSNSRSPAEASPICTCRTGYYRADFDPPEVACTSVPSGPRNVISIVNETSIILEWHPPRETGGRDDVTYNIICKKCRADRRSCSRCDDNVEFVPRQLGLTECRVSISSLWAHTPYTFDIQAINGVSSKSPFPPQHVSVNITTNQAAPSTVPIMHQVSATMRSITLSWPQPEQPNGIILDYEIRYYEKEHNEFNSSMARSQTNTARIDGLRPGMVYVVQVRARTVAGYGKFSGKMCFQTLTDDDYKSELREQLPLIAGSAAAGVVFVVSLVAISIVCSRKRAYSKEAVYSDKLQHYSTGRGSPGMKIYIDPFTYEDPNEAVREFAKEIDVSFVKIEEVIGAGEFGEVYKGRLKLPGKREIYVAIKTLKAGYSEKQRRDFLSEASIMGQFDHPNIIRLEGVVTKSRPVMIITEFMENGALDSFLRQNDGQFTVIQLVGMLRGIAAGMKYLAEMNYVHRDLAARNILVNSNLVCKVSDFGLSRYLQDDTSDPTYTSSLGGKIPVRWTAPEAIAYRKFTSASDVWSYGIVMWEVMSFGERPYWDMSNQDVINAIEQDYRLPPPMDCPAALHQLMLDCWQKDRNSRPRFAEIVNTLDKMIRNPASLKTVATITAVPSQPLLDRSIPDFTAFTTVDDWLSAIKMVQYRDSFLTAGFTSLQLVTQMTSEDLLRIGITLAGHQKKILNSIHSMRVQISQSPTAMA

[5] = biological target: Tyrosine-protein kinase Fes/Fps (Homo sapiens) (UniProt P07332); test: Inhibition of human FES assessed as residual activity at 1 uM using polyEY as substrate in presence of 33P-ATP by ProQinase assay relative to control
Tyrosine-protein kinase Fes/Fps (Homo sapiens), sequence (P07332 whole entry): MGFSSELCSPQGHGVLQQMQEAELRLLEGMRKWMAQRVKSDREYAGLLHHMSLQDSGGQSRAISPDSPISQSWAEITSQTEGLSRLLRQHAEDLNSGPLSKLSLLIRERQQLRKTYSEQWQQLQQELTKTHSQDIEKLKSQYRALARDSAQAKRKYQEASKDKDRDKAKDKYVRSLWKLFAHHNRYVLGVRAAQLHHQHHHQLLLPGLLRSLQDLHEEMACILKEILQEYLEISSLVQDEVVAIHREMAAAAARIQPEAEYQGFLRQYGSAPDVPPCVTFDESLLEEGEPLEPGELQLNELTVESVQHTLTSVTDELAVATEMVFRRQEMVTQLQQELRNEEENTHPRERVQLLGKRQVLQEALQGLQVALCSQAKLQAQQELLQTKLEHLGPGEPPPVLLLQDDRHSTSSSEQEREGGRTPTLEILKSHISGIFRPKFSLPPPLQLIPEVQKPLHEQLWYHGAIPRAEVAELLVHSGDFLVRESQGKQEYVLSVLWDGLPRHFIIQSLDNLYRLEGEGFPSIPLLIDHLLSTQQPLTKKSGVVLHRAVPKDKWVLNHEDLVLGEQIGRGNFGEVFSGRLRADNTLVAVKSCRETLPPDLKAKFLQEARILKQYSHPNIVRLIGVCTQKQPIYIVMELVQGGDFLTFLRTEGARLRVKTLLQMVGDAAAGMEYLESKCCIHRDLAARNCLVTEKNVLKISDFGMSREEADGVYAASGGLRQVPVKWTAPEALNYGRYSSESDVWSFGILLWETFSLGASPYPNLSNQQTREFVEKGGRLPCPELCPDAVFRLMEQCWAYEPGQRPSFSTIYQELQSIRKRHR

[6] = biological target: Mitogen-activated protein kinase 8 (Homo sapiens) (UniProt P45983); test: Inhibition of human JNK1 assessed as residual activity at 1 uM using ATF2 as substrate in presence of 33P-ATP by ProQinase assay relative to control
Mitogen-activated protein kinase 8 (Homo sapiens), sequence (P45983 whole entry): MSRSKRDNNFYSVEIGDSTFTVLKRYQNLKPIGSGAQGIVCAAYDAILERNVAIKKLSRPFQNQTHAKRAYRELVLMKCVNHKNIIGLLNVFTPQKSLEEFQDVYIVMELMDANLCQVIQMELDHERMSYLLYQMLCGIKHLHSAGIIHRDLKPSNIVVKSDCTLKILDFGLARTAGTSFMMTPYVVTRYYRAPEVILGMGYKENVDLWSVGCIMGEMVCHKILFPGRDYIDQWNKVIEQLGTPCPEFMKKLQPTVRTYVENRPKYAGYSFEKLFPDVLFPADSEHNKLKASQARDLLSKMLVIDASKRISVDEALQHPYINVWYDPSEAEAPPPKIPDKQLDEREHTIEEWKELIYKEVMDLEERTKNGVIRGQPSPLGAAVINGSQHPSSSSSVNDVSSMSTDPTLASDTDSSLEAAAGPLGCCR

[7] = biological target: CDK3/Cyclin E (Homo sapiens) (UniProt P24864+Q00526); test: Inhibition of human CDK3/CyclinE1 assessed as residual activity at 1 uM using RBER-CHKtide as substrate in presence of 33P-ATP by ProQinase assay relative to control; format: protein-complex assay
CDK3/Cyclin E (Homo sapiens), sequence (P24864 whole entry, looked up): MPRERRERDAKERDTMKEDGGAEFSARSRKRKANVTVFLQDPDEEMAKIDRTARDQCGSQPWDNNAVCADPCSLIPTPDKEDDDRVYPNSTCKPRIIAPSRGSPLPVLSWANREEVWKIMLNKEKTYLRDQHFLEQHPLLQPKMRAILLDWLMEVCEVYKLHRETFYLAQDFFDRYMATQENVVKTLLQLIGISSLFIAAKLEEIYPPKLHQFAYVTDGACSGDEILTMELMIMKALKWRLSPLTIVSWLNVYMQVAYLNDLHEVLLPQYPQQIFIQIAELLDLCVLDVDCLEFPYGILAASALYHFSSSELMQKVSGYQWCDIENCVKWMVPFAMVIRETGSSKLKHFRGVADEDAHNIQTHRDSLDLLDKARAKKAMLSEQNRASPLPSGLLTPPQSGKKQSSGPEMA
CDK3/Cyclin E (Homo sapiens), sequence (Q00526 whole entry, looked up): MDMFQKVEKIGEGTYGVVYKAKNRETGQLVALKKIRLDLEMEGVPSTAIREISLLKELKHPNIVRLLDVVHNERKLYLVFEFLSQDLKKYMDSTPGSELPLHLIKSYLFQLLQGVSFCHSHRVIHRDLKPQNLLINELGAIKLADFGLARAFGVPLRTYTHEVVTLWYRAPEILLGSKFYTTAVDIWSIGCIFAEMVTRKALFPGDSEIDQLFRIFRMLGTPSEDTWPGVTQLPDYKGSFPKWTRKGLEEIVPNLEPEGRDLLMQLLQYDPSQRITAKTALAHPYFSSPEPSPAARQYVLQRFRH

O=C1c2ccc(Nc3ccc(F)cc3F)cc2CCc2ccc(OC[C@H](O)CO)cc21 [Skepinone-L]
Activity [1]: 100% | Activity [2]: 101% | Activity [3]: 98% | Activity [4]: 116% | Activity [5]: 121% | Activity [6]: 98% | Activity [7]: 96%
